# Test results from article PMC7150977, “Regional Intestinal Drug Permeability and Effects of Permeation Enhancers in Rat” (Pharmaceutics, 2020).
# Where two headings read alike, the source gives them in different places.
# Legend:
# jejunum and colon [1] = assay: Regional comparison (jejunum vs colon, pH 6.5 vs 7.4) of Peff in rat SPIP; assay type: in vivo; details: plasma appearance
# Protocol: The ratio was compared using the paired student’s t-test with the Benjamini–Hochberg multiple t-test correction. Multiple comparisons between groups were performed using a two-way ANOVA with a post-hoc Holm–Sidak multiple comparison test. Log transformation of values was performed when the original measured data were heteroscedastic and not normally distributed; this was investigated using the Bartlett test. Differences were considered to be statistically significant for p-values < than 0.05.
# [2] = First-pass extraction (Ffirstpass) in rat intestine and liver; assay type: in vivo; details: based on literature data, iv plasma CL and liver blood flow 47 mL/min/kg
# colon [3] = details: control solutions, mean ±SD, n = 38
# Protocol: A linear regression analysis of the plasma samples was made to obtain a corresponding plasma value for each perfusate sample. The blood-to-lumen CLCr-EDTA was calculated using Equation (1) [16]. (1) CLCr−EDTA=Cperfusate × Qin/Cplasma × tissue weight ×100 where Cperfusate and Cplasma is the activity in the perfusate and plasma (cpm/mL), and Qin is the flow rate (mL/min). CLCr-EDTA was determined during the last 45 min for the control solution and during the last 60 min for the test solutions, of which the first 15 min of each period were for equilibration.
# jejunum [4] = assay: Rat single-pass intestinal perfusion (SPIP), jejunal lumen-to-blood Peff from plasma appearance; assay type: in vivo; details: 100 µM, mean ±SD, n = 6
# jejunum [5] = tested on: jejunum; design: method as in PMID 31201856; details: rat jejunum SPIP, cited from earlier work
# jejunum and colon [6] = details: human study; cited from earlier work
# colon [7] = details: male, Han Wistar, rat, in vivo, 60 min, 100 µM
# [8] = design: method as in PMID 9836611; details: n-octanol-water; cited from earlier work
# intestine [9] = details: pH 6.5, rat SPIP model; cited from earlier work
# intestine [10] = details: pH 6.5, human SPIP model; cited from earlier work
# [11] = design: method as in patent wo2012080471, 6; details: dog, oral with permeation enhancer; ref patent wo2012080471, 6; cited from earlier work
# [12] = Jejunum pH 6.5, control solution
# [13] = Jejunum pH 7.4, control solution
compound,measurement,setting,value
"CC(C)NCC(O)COc1ccc(CC(N)=O)cc1 (centres unmarked) [Atenolol, atenolol]",difference in jejunal and colonic basal Peff,jejunum and colon [1],no differences
same,Ffirstpass (first-pass extraction compensation value),[2],1.0
"O=C([O-])CN(CCN(CC(=O)[O-])CC(=O)[O-])CC(=O)[O-].[51Cr+3] [Cr-EDTA, ^51chromium-labeled ethylenediaminetetraacetate]",colonic CLCr-EDTA (blood-to-lumen clearance),colon [3],0.038 ± 0.050 mL/min/100 g
"C[C@H](N[C@@H](CCc1ccccc1)C(=O)O)C(=O)N1CCC[C@H]1C(=O)O [Enalaprilat, enalaprilat]",Plasma Appearance Peff,jejunum [4]; [12],0.005 ± 0.004 ×10^–4 cm/s
same,Plasma Appearance Peff,jejunum [4]; [13],0.004 ± 0.001 ×10^–4 cm/s
same,difference in jejunal and colonic basal Peff,jejunum and colon [1],no differences
same,permeability from luminal disappearance compared to plasma appearance (times higher),jejunum [5]; same rat,> 10 times
"CC(C(=O)O)c1cccc(C(=O)c2ccccc2)c1 (centres unmarked) [Ketoprofen, ketoprofen]",difference between permeability from luminal disappearance and plasma appearance,jejunum [5],no differences
same,difference between permeability from luminal disappearance and plasma appearance,jejunum and colon [6],no differences
"COCCc1ccc(OCC(O)CNC(C)C)cc1 (centres unmarked) [Metoprolol, metoprolol]",Plasma Appearance Peff,jejunum [4]; [12],0.28 ± 0.24 ×10^–4 cm/s
same,Plasma Appearance Peff,jejunum [4]; [13],0.17 ± 0.095 ×10^–4 cm/s
same,Ffirstpass (first-pass extraction compensation value),[2],0.22
same,Plasma Appearance Peff,colon [7]; pH 6.5,0.41 ± 0.19 ×10^–4 cm/s
same,Plasma Appearance Peff,colon [7]; pH 7.4,0.38 ± 0.15 ×10^–4 cm/s
same,Log P,[8],2.07
same,difference between permeability from luminal disappearance and plasma appearance,jejunum [5],no differences
same,difference between permeability from luminal disappearance and plasma appearance,jejunum and colon [6],no differences
"CCCCCCCCCC(=O)[O-].[Na+] [caprate, sodium caprate]",permeation enhancing effect,intestine [9],no permeation enhancing effect
same,permeation enhancing effect,intestine [10],no permeation enhancing effect
semaglutide,bioavailability,[11],0.29 % of the oral dose
